Laboratory results: the supplement of paper PMC10307832

What was measured:
Assay in all cases: relative viability (nuclei count vs DMSO), 5 days (fraction); higher = more cells survive
[1] = compound: C1=CC2=NC=CN=C2C=C1/C=C/3\C(=O)NC(=O)S3 + Cc1nc(Nc2ncc(C(=O)Nc3c(C)cccc3Cl)s2)cc(N2CCN(CCO)CC2)n1 [Dasatinib] (partner 0.075 µM)
How it was run: (§1)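 The day after seeding in 1536-well plates, lung cancer cell lines were treated by pin tool with a single drug, or with a fixed anchor-drug dose together with five library-drug doses (not always all listed) in √10 steps. After 5 days, a combined fix-and-stain solution (final 0.05% Triton X-100, 1% formaldehyde, 1 ug/ml Hoechst) was added. Nuclei counted on 4× images gave relative viability as treated counts over vehicle counts, reported as the median of duplicate plates.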

[2] = compound: C1=CC2=NC=CN=C2C=C1/C=C/3\C(=O)NC(=O)S3 + Cc1nc(NC(=O)N2CCC[C@H]2C(N)=O)sc1-c1ccnc(C(C)(C)C(F)(F)F)c1 [Alpelisib] (partner 2 µM)
How it was run: as §1

BGJ398 + Phenformin = compound: CCN1CCN(c2ccc(Nc3cc(N(C)C(=O)Nc4c(Cl)c(OC)cc(OC)c4Cl)ncn3)cc2)CC1 [BGJ398] + N=C(N)NC(=N)NCCc1ccccc1 [Phenformin] (partner 250 µM)
How it was run: as §1

BGJ398 + Foretinib = compound: CCN1CCN(c2ccc(Nc3cc(N(C)C(=O)Nc4c(Cl)c(OC)cc(OC)c4Cl)ncn3)cc2)CC1 [BGJ398] + COc1cc2c(Oc3ccc(NC(=O)C4(C(=O)Nc5ccc(F)cc5)CC4)cc3F)ccnc2cc1OCCCN1CCOCC1 [Foretinib] (partner 0.25 µM)
How it was run: as §1

Row | Cell Line | relative viability ([1]; first compound 0.02 µM) | relative viability ([1]; first compound 0.06325 µM) | relative viability ([1]; first compound 0.2 µM) | relative viability ([1]; first compound 0.6325 µM) | relative viability ([1]; first compound 2 µM) | relative viability ([2]; first compound 0.02 µM) | relative viability ([2]; first compound 0.06325 µM) | relative viability ([2]; first compound 0.2 µM) | relative viability ([2]; first compound 0.6325 µM) | relative viability ([2]; first compound 2 µM) | relative viability (BGJ398 + Phenformin; first compound 0.01 µM) | relative viability (BGJ398 + Phenformin; first compound 0.03162 µM) | relative viability (BGJ398 + Phenformin; first compound 0.1 µM) | relative viability (BGJ398 + Phenformin; first compound 0.3162 µM) | relative viability (BGJ398 + Phenformin; first compound 1 µM) | relative viability (BGJ398 + Foretinib; first compound 0.01 µM) | relative viability (BGJ398 + Foretinib; first compound 0.03162 µM) | relative viability (BGJ398 + Foretinib; first compound 0.1 µM) | relative viability (BGJ398 + Foretinib; first compound 0.3162 µM) | relative viability (BGJ398 + Foretinib; first compound 1 µM)
1 | NCI-H1437 | 0.656 | 0.353 | 0.406 | 0.353 | 0.174 | 0.964 | 1.04 | 1.03 | 0.936 | 0.844 | 0.265 | 0.34 | 0.314 | 0.268 | 0.281 | 1.42 | 1.29 | 1.27 | 1.25 | 1.28
2 | NCI-H1563 | 0.477 | 0.435 | 0.523 | 0.486 | 0.316 | 0.962 | 0.941 | 0.964 | 0.941 | 1.01 | 0.638 | 0.67 | 0.595 | 0.514 | 0.512 | 0.924 | 0.931 | 0.946 | 0.814 | 0.752
3 | NCI-H1651 | 0.403 | 0.452 | 0.461 | 0.311 | 0.21 | 0.888 | 1.03 | 0.986 | 0.937 | 0.996 | 0.303 | 0.394 | 0.381 | 0.325 | 0.274 | 0.753 | 0.781 | 0.94 | 0.73 | 0.677
4 | NCI-H1666 | 0.716 | 0.835 | 0.772 | 0.819 | 0.575 | 0.918 | 1.14 | 0.863 | 0.94 | 0.851 | 0.55 | 0.609 | 0.622 | 0.581 | 0.557 | 1.03 | 1.01 | 0.963 | 0.945 | 1.01
5 | NCI-H1734 | 0.463 | 0.468 | 0.467 | 0.41 | 0.269 | 0.707 | – | 0.741 | 0.622 | 0.54 | 0.368 | 0.398 | 0.408 | 0.376 | 0.432 | 0.862 | 0.879 | 0.893 | 0.785 | 0.827
6 | NCI-H1755 | 0.43 | 0.371 | 0.448 | 0.355 | 0.257 | 0.878 | 0.824 | 0.941 | 0.888 | 0.896 | 0.533 | 0.669 | 0.618 | 0.656 | 0.601 | 0.88 | 0.985 | 0.919 | 0.929 | 0.955
7 | NCI-H1793 | 0.407 | 0.39 | 0.368 | 0.354 | 0.328 | 0.655 | 0.811 | 0.728 | 0.709 | 0.742 | 0.361 | 0.351 | 0.387 | 0.334 | 0.293 | 0.725 | 0.579 | 0.557 | 0.725 | 0.666
8 | NCI-H1915 | 0.297 | 0.313 | 0.332 | 0.297 | 0.282 | 1.02 | 1.17 | 1.03 | 1.04 | 1.06 | 0.374 | 0.367 | 0.365 | 0.354 | 0.367 | 1.05 | 1.06 | 1.14 | 1.1 | 1.09
9 | NCI-H1944 | 0.227 | 0.191 | 0.209 | 0.193 | 0.147 | 0.856 | 0.763 | 0.853 | 0.776 | 0.8 | 0.198 | 0.195 | 0.237 | 0.188 | 0.177 | 0.946 | 0.889 | 0.941 | 0.831 | 0.826
10 | NCI-H1975 | 0.293 | 0.38 | 0.369 | 0.334 | 0.318 | 0.603 | 0.778 | 0.63 | 0.574 | 0.578 | 0.415 | 0.409 | 0.475 | 0.412 | 0.356 | 0.989 | 1.12 | 1.06 | 0.879 | 0.97
11 | NCI-H1993 | 0.516 | 0.592 | 0.667 | 0.581 | 0.521 | 0.661 | 0.743 | 0.634 | 0.553 | 0.602 | 0.554 | 0.485 | 0.479 | 0.523 | 0.575 | 0.833 | 0.67 | 0.883 | 0.842 | 0.735
12 | NCI-H2009 | 0.312 | 0.31 | 0.358 | 0.272 | 0.175 | 1.24 | 1.21 | 1.17 | 1.18 | 1.21 | 0.454 | 0.511 | 0.437 | 0.374 | 0.45 | 1.11 | 1.24 | 1.22 | 1.22 | 1.26
13 | NCI-H2023 | 0.5 | 0.55 | 0.582 | 0.446 | 0.246 | 0.57 | 0.609 | 0.587 | 0.606 | 0.511 | 0.409 | 0.483 | 0.434 | 0.398 | 0.371 | 0.847 | 0.997 | 0.79 | 0.805 | 0.905
14 | NCI-H2085 | 0.226 | 0.212 | 0.248 | 0.257 | 0.213 | 0.991 | 1.01 | 1.04 | 0.885 | 1.02 | 0.668 | 0.663 | 0.817 | 0.782 | 0.807 | 1 | 1.12 | 0.909 | 0.903 | 0.781
15 | NCI-H2087 | 0.761 | 0.713 | 0.911 | 0.857 | 0.507 | 0.965 | 1.3 | 1.09 | 1.11 | 1.2 | 0.44 | 0.438 | 0.507 | 0.386 | 0.494 | 1.05 | 1.33 | 1.18 | 1.15 | 1.09
16 | NCI-H2126 | 0.499 | 0.625 | 0.614 | 0.629 | 0.266 | 0.662 | 0.786 | 0.752 | 0.757 | 0.639 | 0.505 | 0.57 | 0.541 | 0.547 | 0.475 | 1.19 | 1.28 | 1.26 | 1.2 | 1.12
17 | NCI-H2170 | 0.495 | 0.611 | 0.508 | 0.48 | 0.597 | 0.757 | 0.761 | 0.928 | 0.769 | 0.746 | 0.374 | 0.428 | 0.448 | 0.393 | 0.341 | 1.02 | 1.04 | 1.06 | 0.977 | 1.04
18 | NCI-H2228 | 0.414 | 0.448 | 0.47 | 0.389 | 0.388 | 0.814 | 1.12 | 0.802 | 0.674 | 0.664 | 0.328 | 0.32 | 0.243 | 0.299 | 0.28 | 0.776 | 0.893 | 0.848 | 0.822 | 0.826
19 | NCI-H2347 | 0.318 | 0.26 | 0.306 | 0.304 | 0.293 | 1.02 | 1.09 | 1.08 | 1.07 | 1.02 | 0.292 | 0.602 | 0.507 | 0.434 | 0.496 | 1.02 | 1.12 | 0.838 | 0.717 | 0.741
20 | NCI-H2405 | 0.233 | 0.161 | 0.231 | 0.184 | 0.155 | 0.692 | 0.92 | 0.872 | 0.804 | 0.703 | 0.394 | 0.432 | 0.377 | 0.394 | 0.371 | 1.03 | 1.1 | 1.1 | 1.09 | 0.972
21 | NCI-H3122 | 0.8 | 0.953 | 0.747 | 0.816 | 0.701 | 0.737 | 0.854 | 0.873 | 0.766 | 0.602 | 0.353 | 0.387 | 0.373 | 0.339 | 0.347 | 1.01 | 0.973 | 0.963 | 0.89 | 0.971
22 | PC-3 [JPC-3] | 0.84 | 1.05 | 0.968 | 1.01 | 0.821 | 1.07 | 1.12 | 0.994 | 0.987 | 1.03 | 0.468 | – | 0.445 | 0.418 | 0.46 | 1.15 | – | 1.06 | 1 | 1.02
23 | PC-14 | 0.287 | 0.207 | 0.301 | 0.265 | 0.238 | 0.959 | 0.973 | 0.932 | 0.894 | 0.863 | 0.586 | – | 0.642 | – | 0.369 | 0.905 | 0.618 | 1.02 | 0.802 | 1.03
24 | RERF-LC-KJ | 0.621 | 0.911 | 0.933 | 0.654 | 0.66 | 0.633 | 0.816 | 0.832 | 0.786 | 0.788 | 0.449 | 0.422 | 0.416 | 0.432 | 0.493 | 0.912 | 0.899 | 0.961 | 0.911 | 0.851
25 | SK-LU-1 | 0.196 | 0.196 | 0.2 | 0.19 | 0.0971 | 1.01 | 1.5 | 1.21 | 1.05 | 0.968 | 0.5 | 0.556 | 0.58 | 0.367 | 0.491 | 0.716 | 0.833 | 0.778 | 0.791 | 0.869
26 | SK-MES-1 | 0.456 | 0.267 | 0.375 | 0.339 | 0.211 | – | 0.987 | 0.86 | 0.868 | 0.802 | 0.584 | 0.691 | 0.677 | 0.589 | 0.593 | 0.869 | 1.08 | 0.971 | 0.809 | 1.12
27 | SW 1573 | 0.392 | 0.76 | 0.69 | 0.523 | 0.291 | 0.54 | 0.852 | 0.791 | 0.636 | 0.616 | 0.312 | 0.456 | 0.405 | 0.407 | 0.368 | 0.91 | 1.13 | 0.866 | 0.594 | 0.973
